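48-hour exposure; five concentrations; linearly interpolated endpoints. GI50: concentration for 50% inhibition of growth. TGI is the concentration that stops growth completely.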
Legend:
Assay in all cases: NCI-60 cell line screen, 48 h
HCC-2998 colon = tested on: HCC-2998 colon
NCI-H460 lung = tested on: NCI-H460 lung
T-47D breast = tested on: T-47D breast
CAKI-1 renal = tested on: CAKI-1 renal
UACC-62 melanoma = tested on: UACC-62 melanoma
SK-OV-3 ovarian = tested on: SK-OV-3 ovarian
HOP-92 NSCLC = tested on: HOP-92 NSCLC
HOP-62 NSCLC = tested on: HOP-62 NSCLC
SNB-75 CNS = tested on: SNB-75 CNS
SN12C renal = tested on: SN12C renal
NCI-H226 lung = tested on: NCI-H226 lung
DU-145 prostate = tested on: DU-145 prostate
NCI-H522 lung = tested on: NCI-H522 lung
OVCAR-8 ovarian = tested on: OVCAR-8 ovarian
KM12 colon = tested on: KM12 colon
HT29 colon = tested on: HT29 colon
TK-10 renal = tested on: TK-10 renal
EKVX NSCLC = tested on: EKVX NSCLC
MALME-3M melanoma = tested on: MALME-3M melanoma
ACHN renal = tested on: ACHN renal
LOX IMVI melanoma = tested on: LOX IMVI melanoma
A549 NSCLC = tested on: A549 NSCLC
OVCAR-3 ovarian = tested on: OVCAR-3 ovarian
RPMI-8226 leukemia = tested on: RPMI-8226 leukemia
UO-31 renal = tested on: UO-31 renal
SF-295 CNS = tested on: SF-295 CNS
IGROV1 ovarian = tested on: IGROV1 ovarian
OVCAR-4 ovarian = tested on: OVCAR-4 ovarian

With `COc1ccc(C(O)c2cc3c(N)c(C(=O)Nc4ccccc4)sc3nc2C)cc1` (stereo not given) the GI50 (HCC-2998 colon) was 0.102 µM, the TGI (HCC-2998 colon) was 3.79 µM and the GI50 (NCI-H460 lung) was 0.0361 µM. For the same compound, the TGI (NCI-H460 lung) was 11.1 µM, the GI50 (T-47D breast) was 0.0514 µM and the TGI (T-47D breast) was greater than 100 µM. It also gave a GI50 (CAKI-1 renal) of 0.0416 µM, a TGI (CAKI-1 renal) of 20.7 µM and a GI50 (UACC-62 melanoma) of 0.0397 µM. The TGI (UACC-62 melanoma) was 19.4 µM, the GI50 (SK-OV-3 ovarian) was 0.0539 µM and the TGI (SK-OV-3 ovarian) was 25.4 µM. For the same compound, the GI50 (HOP-92 NSCLC) was 0.0546 µM, the TGI (HOP-92 NSCLC) was 12.1 µM and the GI50 (HOP-62 NSCLC) was 0.0774 µM. For the same compound, the TGI (HOP-62 NSCLC) was 68.6 µM, the GI50 (SNB-75 CNS) was 0.0267 µM and the TGI (SNB-75 CNS) was 21.9 µM. For the same compound, the GI50 (SN12C renal) was 0.0628 µM, the TGI (SN12C renal) was 29.5 µM and the GI50 (NCI-H226 lung) was 0.0579 µM. For the same compound, the TGI (NCI-H226 lung) was 1.87 µM, the GI50 (DU-145 prostate) was 0.0414 µM and the TGI (DU-145 prostate) was 50.6 µM. It also gave a GI50 (NCI-H522 lung) of 0.0347 µM, a TGI (NCI-H522 lung) of 2.57 µM and a GI50 (OVCAR-8 ovarian) of 0.0636 µM. The TGI (OVCAR-8 ovarian) was greater than 100 µM, the GI50 (KM12 colon) was 0.0403 µM and the TGI (KM12 colon) was greater than 100 µM. It also gave a GI50 (HT29 colon) of 0.0333 µM, a TGI (HT29 colon) of 8.6 µM and a GI50 (TK-10 renal) of 4.51 µM. The TGI (TK-10 renal) was 49.8 µM, the GI50 (EKVX NSCLC) was 0.0617 µM and the TGI (EKVX NSCLC) was greater than 100 µM. The GI50 (MALME-3M melanoma) was 0.051 µM, the TGI (MALME-3M melanoma) was 35.1 µM and the GI50 (ACHN renal) was 0.0683 µM. The TGI (ACHN renal) was 27.5 µM, the GI50 (LOX IMVI melanoma) was 0.0539 µM and the TGI (LOX IMVI melanoma) was greater than 100 µM. For the same compound, the GI50 (A549 NSCLC) was 0.0628 µM, the TGI (A549 NSCLC) was greater than 100 µM and the GI50 (OVCAR-3 ovarian) was 0.0321 µM. The TGI (OVCAR-3 ovarian) was 1.27 µM, the GI50 (RPMI-8226 leukemia) was 0.0416 µM and the TGI (RPMI-8226 leukemia) was greater than 100 µM. For the same compound, the GI50 (UO-31 renal) was 0.0706 µM, the TGI (UO-31 renal) was 49.8 µM and the GI50 (SF-295 CNS) was 0.0352 µM. The TGI (SF-295 CNS) was 12.6 µM, the GI50 (IGROV1 ovarian) was 0.094 µM and the TGI (IGROV1 ovarian) was 22.6 µM. The GI50 (OVCAR-4 ovarian) was 2.03 µM.
